In US20160050895A1, “TRANSGENIC NON-HUMAN ORGANISMS WITH NON-FUNCTIONAL TSPO GENES” (AUSTRALIAN NUCLEAR SCIENCE AND TECHNOLOGY ORGANIZATION, priority 2013, published 2016):

Key:
TSPO [1] = experiment: Radioligand membrane saturation binding with 3H-PK11195; design: species or system mouse; settings: testicular and kidney tissue; TSPO-/- mice compared to TSPO+/+ mice
Procedure: (§1) Tissue samples were homogenised with T25 digital Ultra-Turrax homogenizer (Ika, Wilmington, N.C., USA) at speed setting 5 or 20000 rpm in approximately 45 mL of ice-cold TRIS buffer (pH 7.4), collected by centrifugation at 48000 g and the supernatant was then discarded. The procedure was then immediately repeated, this acts as an extra wash step to remove any soluble interfering substances to radioligand binding (Byland et al. 1993). Following the second centrifugation and removal ofsupernatant the samples were resuspended in approximately 50 volumes of ice-cold TRIS buffer (pH 7.4). Samples were aliquoted stored in −80° C. until required.
(§2) For TSPO knock-out mice studies, radioligand binding was performed using 3H-PK11195 racemate across a range of concentrations (FIG. 4). PK11195 is a TSPO specific probe. Total and non-specific binding was determined through 8 concentrations of 3H-PK11195 ranging from 0.56 nM to 20 nM. Non-specific binding was determined by the addition of 5 μM PK11195 to all concentrations of 3H-PK11195. […]
(§3) Organs were homogenised, washed twice in ice-cold 50 mM Tris-HCl (pH 7.4) by centrifugation at 48000×g, resuspended in 50 volumes of ice-cold 50 mM Tris-HCl, and protein concentration was determined using a BCA protein assay kit (Thermo Fisher Scientific). […] Non-specific binding was determined with 5 μM PK11195. […]

TSPO [2] = target: TSPO (Mus musculus, UniProt P50637); experiment: as above; design: Snap-frozen tissues were sectioned at 20 μm in a cryostat; from tissue; host or cells: mouse organ sections (brain, retina/eye, heart, adrenal, kidney, testis, spleen), C57BL/6 background; settings: testicular and kidney tissue; TSPO+/- mice compared to TSPO+/+ mice
Procedure: as §1, §2, §3

CC[C@@H](C)N(C)C(=O)c1cc2ccccc2c(-c2ccccc2Cl)n1 [[^3H]PK11195]
Specific binding using [3H]PK11195 (TSPO [1]): close to zero signal
Specific binding using [3H]PK11195 (TSPO [2]): approximately half the signal
